This assay has as its system 5xFAD mice. Briefly: Morris water maze in 5xFAD mice. The assay is classed as in vivo. As to conditions: 10 mg/kg orally, 3 months. Here is the method: DTMB was synthesized from Daejung Chemicals (Korea) and was dissolved in dimethyl sulfoxide (Sigma Aldrich, St. Louis, MO, USA) for cell-based experiments. To evaluate the effects of DTMB on 5xFAD mice, DTMB (10 mg/kg) and vehicle (1% carboxymethylcellulose and 10% DMSO) were orally administrated to four groups (wild-type, wild-type + DTMB, 5xFAD, and 5xFAD + DTMB) with a 6 day per week for 3 months.
A white water maze tank (120 cm diameter) was filled with water containing white non-toxic tempera paint to make the water opaque. The maze tank was divided into four quadrants, and four different visual cues were placed at each cardinal point. The water temperature was set to 20–22 °C. The Morris water maze experiment was divided into a training session, during which the mice were placed in the tank to find the platform for five consecutive days, followed by a probe test on day 6. Each mouse was trained over three trials per day and the starting quadrant was different for each trial. The duration of each training trials was 1 min and we guided the mice to the platform thereafter. In the probe test on day 6, the platform was removed, and each mouse was allowed to swim for 60 s. Target quadrant occupancy was measured automatically using a SMART v2.5 video tracking system (Panlab, TX, USA). Sample sizes were 20–25 mice per group.

For the compound `COc1ccc(-c2cc(=O)oc3c(C)c(OC(=O)[C@H](Cc4c[nH]c5ccccc45)NC(=O)OC(C)(C)C)ccc23)cc1` [DTMB], the “target quadrant occupancy (probe test, day 6)” value is on record as “markedly improved”.

The values above are taken from PMC9606171, “Synthetic PPAR Agonist DTMB Alleviates Alzheimer’s Disease Pathology by Inhibition of Chronic Microglial Inflammation in 5xFAD Mice” (Neurotherapeutics, 2022).
